{"source": "patent US9845335B2", "about": "“Sofosbuvir in crystalline form and process for its preparation” (HC-PHARMA AG, priority 2014, dated 2017)", "type_in_all_cases": "physicochemical", "key": {"[1]": {"experiment": "Powder properties of the crystalline form (bulk and tapped density, compressibility, Hausner ratio)"}, "[2]": {"experiment": "Stability and hygroscopicity of the crystalline form", "details": "statement in words, no data"}, "[3]": {"experiment": "Particle size distribution (PSD)"}, "[4]": {"details": "product of Example 1 (from isobutyl methyl ketone)"}}}
{"smiles": "CC(C)OC(=O)[C@H](C)N[P@](=O)(OC[C@H]1O[C@@H](n2ccc(=O)[nH]c2=O)[C@](C)(F)[C@@H]1O)Oc1ccccc1", "note": "[Sofosbuvir Form α]", "values": [{"measurement": "Bulk Density", "setting": "[1]", "result": 0.22, "unit": "g/mL"}, {"measurement": "Compressibility index", "setting": "[1]", "result": 24.4}, {"measurement": "Hausner ratio", "setting": "[1]", "result": 1.32}, {"measurement": "Tapped Density", "setting": "[1]", "result": 0.29, "unit": "g/mL"}, {"measurement": "Hygroscopicity", "setting": "[2]", "result": "not hygroscopic"}, {"measurement": "Stability of the crystalline form", "setting": "[2]", "result": "stable"}, {"measurement": "PSD: size of the 90% of the particles", "setting": "[3]; general characterisation of the form", "result": "10 to 50", "unit": "μm"}, {"measurement": "PSD d(0.1)", "setting": "[3]; [4]", "result": 1.831, "unit": "μm"}, {"measurement": "PSD d(0.5)", "setting": "[3]; [4]", "result": 5.263, "unit": "μm"}, {"measurement": "PSD d(0.9)", "setting": "[3]; [4]", "result": 20.369, "unit": "μm"}]}
